# Where two headings read alike, the source gives them in different places.
# Tests used:
# Format in all cases: cell-based, human
# MOLM14 cells = experiment: Proliferation assay (spheroid confluence, 8 days), MOLM14; conditions: read-out: spheroid assay_MOLM14 IC50
# Method: (§1) The anti-proliferative effect of menin/MLL protein/protein interaction inhibitor test compounds was assessed in human leukemia cell lines. The cell line MOLM14 harbors a MLL translocation and expresses the MLL fusion protein MLL-AF9, respectively, as well as the wildtype protein from the second allele. OCI-AML3 cells that carry the NPM1c gene mutation were also tested. […] KO-52 was used as a control cell line containing two MLL (KMT2A) wildtype alleles in order to exclude compounds that display general cytotoxic effects.
# (§2) MOLM14 cells were cultured in RPMI-1640 (Sigma Aldrich) supplemented with 10% heat-inactivated fetal bovine serum (HyClone), 2 mM L-glutamine (Sigma Aldrich) and 50 μg/ml gentamycin (Gibco). KO-52 and OCI-AML3 cell lines were propagated in alpha-MEM (Sigma Aldrich) supplemented with 20% heat-inactivated fetal bovine serum (HyClone), 2 mM L-glutamine (Sigma Aldrich) and 50 μg/ml gentamycin (Gibco).
# (§3) In order to assess the anti-proliferative effects, 200 MOLM14 cells, 200 OCI-AML3 cells or 300 KO-52 cells were seeded in 200 μl media per well in 96-well round bottom, ultra-low attachment plates (Costar, catalogue number 7007). Cell seeding numbers were chosen based on growth curves to ensure linear growth throughout the experiment. Test compounds were added at different concentrations and the DMSO content was normalized to 0.3%. Cells were incubated for 8 days at 37° C. and 5% CO2. Spheroid like growth was measured in real-time by live-cell imaging (IncuCyteZOOM, Essenbio, 4×objective) acquiring images at day 8. Confluence (%) as a measure of spheroid size was determined using an integrated analysis tool.
# (§4) In order to determine the effect of the test compounds over time, the confluence in each well as a measure of spheroid size, was calculated. Confluence of the highest dose of a reference compound was used as baseline for the LC (Low control) and the confluence of DMSO treated cells was used as 0% cytotoxicity (High Control, HC).
# (§5) Absolute IC50 values were calculated as percent change in confluence as follows:
# (§6) LC=Low Control: cells treated with e.g. 1 μM of the cytotoxic agent staurosporin, or e.g. cells treated with a high concentration of an alternative reference compound
# (§7) HC=High Control: Mean confluence (%) (DMSO treated cells)
# (§8) % Effect=100−(100*(Sample−LC)/(HC−LC))
# (§9) GraphPad Prism (version 7.00) was used to calculate the IC50. Dose-response equation was used for the plot of % Effect vs Log10 compound concentration with a variable slope and fixing the maximum to 100% and the minimum to 0%.
# MEIS1 mRNA expression = MEIS1 mRNA expression assay (Quantigene Singleplex) in MOLM14 cells; conditions: 48 hours incubation
# Summary of the method: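 Read-out: MEIS1 transcript counts, background-subtracted and divided by RPL28, expressed as fold change over DMSO-treated cells, then dose-response modelled for IC50. MOLM14 cells (3,750/well) received graded compound for 48 h before lysis and QuantiGene hybridization at 55 °C.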
# KO-52 cells = experiment: Proliferation assay (spheroid confluence, 8 days), KO-52 control cell line; conditions: read-out: spheroid assay_KO-52 IC50
# Method: as §1, §2, §3, §4, §5, §6, §7, §8, §9
"IC50 (MOLM14 cells; Homo sapiens, MOLM-14, MOLM14)","IC50 (MEIS1 mRNA expression; Homo sapiens, MOLM-14, 48 h)",IC50 (MOLM14 cells; MOLM14),IC50 (MEIS1 mRNA expression),SMILES,IC50 (KO-52 cells; Homo sapiens),IC50 (KO-52 cells)
11 nM,23 nM,,,CC(=O)N1CCN(CCCC(C(C)C)N2CC[C@@H](Cc3cn(-c4ccc(F)cc4C(=O)N(C)C(C)C)c4cncc(C)c34)C2)CC1 (mixture of isomers) [Compound 8],2.4 µM,
13 nM,23 nM,,,CC(=O)N1CCN(CCCC(C(C)C)N2CC[C@H](Cc3cn(-c4ccc(F)cc4C(=O)N(C)C(C)C)c4cncc(C)c34)C2)CC1 (mixture of isomers) [Compound 9],5.6 µM,
< 1.8 nM,< 2.3 nM,,,CC(=O)N1C[C@@H]2CN([C@H]3C[C@@H](C(C(C)C)N4CC[C@H](Cc5cn(-c6ccc(F)cc6C(=O)N(C)C(C)C)c6cncc(C)c56)C4)C3)C[C@H]2C1 (mixture of isomers) [Compound 21],2 µM,
13 nM,71 nM,,,CCC([C@H]1C[C@@H](N2CCN(C(C)=O)CC2)C1)N1CC[C@@H](Cc2cn(-c3ccc(F)cc3C(=O)N(C)C(C)C)c3cncc(C)c23)C1 (mixture of isomers) [Compound 24],8.5 µM,
111 nM,327 nM,,,Cc1cncc2c1c(C[C@@H]1CCN(CC3CCOCC3)C1)cn2-c1ccc(F)cc1S(=N)(=O)C(C)C (mixture of isomers) [Compound 78],8.4 µM,
16 nM,71 nM,,,Cc1cncc2c1c(C[C@@H]1CCN(CC3CCNC(=O)CC3)C1)cn2-c1ccc(F)cc1C(=O)N(C)C(C)C (mixture of isomers) [Compound 169],10 µM,
305 nM,322 nM,,,Cc1cncc2c1c(C[C@@H]1CCN(CC3CCNC(=O)C3)C1)cn2-c1ccc(F)cc1C(=O)N(C)C(C)C (mixture of isomers) [Compound 212],> 15 µM,
1 nM,3 nM,,,"COCCN(C)CCCC(C(C)C)N1CC[C@H](Cc2cn(-c3ccc(F)cc3C(=O)N(C)C(C)C)c3cncc(C)c23)C1 (single isomer, unassigned) [Compound 2]",> 15 µM,
132 nM,247 nM,,,"COCCN(C)CCC[C@H](C(C)C)N1CC[C@H](Cc2cn(-c3ccc(F)cc3C(=O)N(C)C(C)C)c3cncc(Cl)c23)C1 (single isomer, unassigned) [Compound 4a]",7.8 µM,
3 nM,6 nM,,,"COCCN(C)CCC[C@@H](C(C)C)N1CC[C@H](Cc2cn(-c3ccc(F)cc3C(=O)N(C)C(C)C)c3cncc(Cl)c23)C1 (single isomer, unassigned) [Compound 4b]",0.5 µM,
2 nM,6 nM,,,"CC(=O)N1CCN(CCCC(C(C)C)N2CCC(Cc3cn(-c4ccc(F)cc4C(=O)N(C)C(C)C)c4cncc(C)c34)C2)CC1 (single isomer, unassigned) [Compound 9a]",0.6 µM,
3 nM,< 3.3 nM,,,"CC(=O)N1C[C@@H]2CN(CCC[C@H](C(C)C)N3CC[C@H](Cc4cn(-c5ccc(F)cc5C(=O)N(C)C(C)C)c5cncc(Cl)c45)C3)C[C@H]2C1 (single isomer, unassigned) [Compound 19a]",> 15 µM,
,,197 nM,~260 nM,"CN=S(=O)(c1cc(F)ccc1-n1cc(CC2CCN(CC3CCOCC3)C2)c2c(C)cncc21)C(C)C (single isomer, unassigned) [Compound 77d]",,> 15 µM
676 nM,258 nM,,,"CN=[S@](=O)(c1cc(F)ccc1-n1cc(C[C@@H]2CCN(CC3CCN(C(C)=O)CC3)C2)c2c(C)cncc21)C(C)C (single isomer, unassigned) [Compound 128a]",7.7 µM,
4 nM,38 nM,,,"COC[C@H](C1CCCCO1)N1CC[C@@H](Cc2cn(-c3ccc(F)cc3C(=O)N(C)C(C)C)c3cncc(C)c23)C1 (single isomer, unassigned) [Compound 165b]",1.9 µM,
39 nM,117 nM,,,"Cc1cncc2c1c(C[C@@H]1CCN([C@H](C)C3CCOCC3)C1)cn2-c1ccc(F)cc1[S@](=N)(=O)C(C)C (single isomer, unassigned) [Compound 180a]",7.2 µM,
44 nM,111 nM,,,"Cc1cncc2c1c(C[C@H]1CCN([C@H](C)C3CCOCC3)C1)cn2-c1ccc(F)cc1[S@](=N)(=O)C(C)C (single isomer, unassigned) [Compound 181a]",4.1 µM,
40 nM,113 nM,,,"Cc1cncc2c1c(C[C@@H]1CCN(C[C@H]3CCOC3)C1)cn2-c1ccc(F)cc1C(=O)N(C)C(C)C (single isomer, unassigned) [Compound 190a]",10 µM,
46 nM,65 nM,,,"Cc1cncc2c1c(C[C@@H]1CCN(C[C@@H]3CCOC3)C1)cn2-c1ccc(F)cc1C(=O)N(C)C(C)C (single isomer, unassigned) [Compound 190b]",4.9 µM,
7 nM,39 nM,,,"Cc1cncc2c1c(CC1CN(C[C@H]3CCOC3)C1)cn2-c1ccc(F)cc1C(=O)N(C)C(C)C (single isomer, unassigned) [Compound 191a]",4.6 µM,
33 nM,41 nM,,,"Cc1cncc2c1c(CC1CN(C[C@@H]3CCOC3)C1)cn2-c1ccc(F)cc1C(=O)N(C)C(C)C (single isomer, unassigned) [Compound 191b]",7 µM,
23 nM,21 nM,,,"Cc1cncc2c1c(C[C@@H]1CCN(CC3CCC(O)CC3)C1)cn2-c1ccc(F)cc1C(=O)N(C)C(C)C (single isomer, unassigned) [Compound 205a]",,7 µM
,,25 nM,31 nM,"Cc1cncc2c1c(C[C@@H]1CCN(CC3CCC(O)CC3)C1)cn2-c1ccc(F)cc1C(=O)N(C)C(C)C (single isomer, unassigned) [Compound 205b]",,3.2 µM
13 nM,24 nM,,,"CC(=O)N1CCC([C@H](CO)N2CC[C@@H](Cc3cn(-c4ccc(F)cc4C(=O)N(C)C(C)C)c4cncc(C)c34)C2)CC1 (single isomer, unassigned) [Compound 206a]",6.6 µM,
18 nM,14 nM,,,"CC(=O)N1CCC(CN2CC[C@@H](Cc3cn(-c4ccc(F)cc4C(=O)N4CCC5CC54)c4cncc(C)c34)C2)CC1 (single isomer, unassigned) [Compound 311a]",7.7 µM,
,,35 nM,26 nM,"CC(=O)N1CCC(CN2CC[C@@H](Cc3cn(-c4ccc(F)cc4C(=O)N4CCC5CC54)c4cncc(C)c34)C2)CC1 (single isomer, unassigned) [Compound 311b]",,> 15 µM
4 nM,10 nM,,,COCCN(C)CCCC(C(C)C)N1CC[C@@H](Cc2cn(-c3ccc(F)cc3C(=O)N(C)C(C)C)c3cncc(Cl)c23)C1 (stereo partly drawn) [Compound 3],1.1 µM,
5 nM,11 nM,,,COCCN(C)CCCC(C(C)C)N1CC[C@H](Cc2cn(-c3ccc(F)cc3C(=O)N(C)C(C)C)c3cncc(Cl)c23)C1 (stereo partly drawn) [Compound 4],3 µM,
34 nM,49 nM,,,COCCN(C)CCCC(C(C)C)N1CCC(Cc2cn(-c3ccc(F)cc3C(=O)N(C)C(C)C)c3cncc(F)c23)C1 (stereo not drawn) [Compound 6],1.5 µM,

# — patent US20230250096A1, “SUBSTITUTED PHENYL-1H-PYRROLO[2,3-c] PYRIDINE DERIVATIVES” (Janssen Pharmaceutica NV, priority 2021, published 2023)
